# Test system: NCIES0808 cells
# Experiment: Two-dimensional gel analysis with MS identification
# Assay type: cell-based, human
# Conditions: − = down, 1 = no change; for Spot 154, Translin-associated factor X: modulation vs control media / Spot 240, Proteasome 26S subunit 13; Endophilin B1: modulation vs control media / Spot 284, Proteasome 26S subunit: modulation vs control media / Spot 583, hnRNP C1/C2: modulation vs control media / Spot 612, Myosin Regulatory Light Chain: modulation vs control media / Spot 667, Dismutase Cu/Zn Superoxide: modulation vs control media / Spot 685, hnRNP C1/C2: modulation vs control media / Spot 746, Actin-like 6A; Eukaryotic Initiation Factor 4All: modulation vs control media / Spot 938, Nuclear Chloride Channel protein: modulation vs control media / Spot 940, Ubiquilin 1; Phosphatase 2A: modulation vs control media: 3 hours; for Spot 452, acid phosphatase 1: modulation vs control media / Spot 477, diazepam binding inhibitor: modulation vs control media / Spot 530, ribosomal protein SA: modulation vs control media / Spot 652, proteasome beta 3: modulation vs control media / Spot 720, dCTP pyrophosphatase 1: modulation vs control media / Spot 773, proteasome beta 4: modulation vs control media / Spot 1057, Arsenite translocating ATPase; Spermine synthetase: modulation vs control media: 6 hours
# Experimental: NCIES0808 cells were plated in T25 flasks in experimental conditions similar to those described in the PCR array section. At the end of the treatment time, cells were trypsinized as described in the PCR array section and washed twice in ice cold TBS and snap frozen in liquid nitrogen. Further processing for Western blots was carried out at UMass.
# Before isoelectric focusing (IEF), samples were solubilized in 40 mM Tris, 7 M urea, 2 M thiourea, and 1% C7 zwitterionic detergent, reduced with tributylphosphine, and alkylated with 10 mM acrylamide for 90 min at room temperature. After the sample was run through a 10-kDa cutoff Amicon Ultra device with at least 3 volumes of the resuspension buffer, consisting of 7 M urea, 2 M thiourea, and 2% CHAPS to reduce the conductivity of the sample. One hundred micrograms of protein were subjected to IEF on 11-cm pH 3 to 10, pH 4 to 7 or pH 6 to 11 immobilized pH gradient strips (GE, Amersham, USA) to 100,000 volts hour. After IEF, immobilized pH gradient strips were equilibrated in 6 M urea, 2% SDS, 50 mM Tris-acetate buffer, pH 7.0, and 0.01% bromphenol blue and subjected to SDS-polyacrylamide gel electrophoresis on 8 to 16% Tris-HCl Precast Gel, 1 mm (Bio-Rad, USA). The gels were run in duplicate. They were fixed, stained in SYPRO Ruby, 80 mL/gel (Invitrogen, USA) and imaged on Fuji FLA-5100 laser scanner.
# Analysis of all gel images was performed using Progenesis Discovery and Pro (Nonlinear Dynamics Inc., Newcastle upon Tyne, UK). After spot detection, matching, background subtraction, normalization, and filtering, data for SYPRO Ruby gel images was exported. […] Manual annotation of each statistically significant spots was performed to assure accurate detection.
# Tryptic peptides extracted from respective gel plugs were dried down to a 10 ul volume and acidified with 1-2 ul of 1% TFA. Samples were loaded on an uC18 Zip Tip (Millipore, Corp) after pre-equilibration in 0.1% TFA. After washing with 2×10 ul aliquots of 0.1% TFA, samples were deposited directly onto the MALDI sample target using 1 ul of Matrix solution 15 mg/ml of 2,5 Dihydroxybenzoic Acid (MassPrep DHB, Waters Corp.) in 50:50 Acetonitrile: 0.1% TFA. Samples were allowed to air dry prior to insertion into the mass spectrometer. Analysis were performed on a Kratos Axima QIT (Shimadzu Instruments) matrix-assisted-laser desorption/ionization (MALDI) mass spectrometer. Peptides were analyzed in positive ion mode in mid mass range (700-3000 Da). The instrument was externally calibrated with Angiotensin II (1046.54), P14R (1533.86) and ACTH (18-39) 2465.20 Da. Precursors were selected based on signal intensity at a mass resolution width of 250 for CID fragmentation using Argon as the collision gas. Database searches were performed in house with Mascot (Matrix Sciences, Ltd.) using the Peptide Mass Fingerprint program for MS data and the MS/MS Ion Search program for CID data. All identifications were confirmed or established with CID (MS/MS) data.
# NCIES0808 cells treated for 3, 6 and 24 hours were subjected to 2-D gel electrophoreses and were analyzed to identify protein-level changes relative to the control media samples. A comparative analysis of spots across multiple duplicated gels was performed, comparing the “control media sample” against all of the treated samples at both the 50 uM and 100 uM doses. The analysis included the identification of spot changes over the time course due to an increase, decrease, or post-translational modification.
substance,measurement,setting,value
Coenzyme Q10 [CoQ10],"Spot 154, Translin-associated factor X: modulation vs control media",50 uM Q10,1
same,"Spot 240, Proteasome 26S subunit 13; Endophilin B1: modulation vs control media",50 uM Q10,−1.3
same,"Spot 284, Proteasome 26S subunit: modulation vs control media",50 uM Q10,−1.1
same,"Spot 583, hnRNP C1/C2: modulation vs control media",50 uM Q10,1.4
same,"Spot 612, Myosin Regulatory Light Chain: modulation vs control media",50 uM Q10,1.4
same,"Spot 667, Dismutase Cu/Zn Superoxide: modulation vs control media",50 uM Q10,−1.1
same,"Spot 685, hnRNP C1/C2: modulation vs control media",50 uM Q10,1.2
same,"Spot 746, Actin-like 6A; Eukaryotic Initiation Factor 4All: modulation vs control media",50 uM Q10,−1.3
same,"Spot 938, Nuclear Chloride Channel protein: modulation vs control media",50 uM Q10,−1.2
same,"Spot 940, Ubiquilin 1; Phosphatase 2A: modulation vs control media",50 uM Q10,1
same,"Spot 154, Translin-associated factor X: modulation vs control media",100 uM Q10,−1.9
same,"Spot 240, Proteasome 26S subunit 13; Endophilin B1: modulation vs control media",100 uM Q10,1.5
same,"Spot 284, Proteasome 26S subunit: modulation vs control media",100 uM Q10,−1.6
same,"Spot 583, hnRNP C1/C2: modulation vs control media",100 uM Q10,1.5
same,"Spot 612, Myosin Regulatory Light Chain: modulation vs control media",100 uM Q10,1.4
same,"Spot 667, Dismutase Cu/Zn Superoxide: modulation vs control media",100 uM Q10,−1.4
same,"Spot 685, hnRNP C1/C2: modulation vs control media",100 uM Q10,1.2
same,"Spot 746, Actin-like 6A; Eukaryotic Initiation Factor 4All: modulation vs control media",100 uM Q10,−1.2
same,"Spot 938, Nuclear Chloride Channel protein: modulation vs control media",100 uM Q10,−1.2
same,"Spot 940, Ubiquilin 1; Phosphatase 2A: modulation vs control media",100 uM Q10,1.3
same,"Spot 452, acid phosphatase 1: modulation vs control media",50 uM Q10,−1.3
same,"Spot 477, diazepam binding inhibitor: modulation vs control media",50 uM Q10,−1.4
same,"Spot 530, ribosomal protein SA: modulation vs control media",50 uM Q10,−1.2
same,"Spot 652, proteasome beta 3: modulation vs control media",50 uM Q10,−1.1
same,"Spot 720, dCTP pyrophosphatase 1: modulation vs control media",50 uM Q10,−1.2
same,"Spot 773, proteasome beta 4: modulation vs control media",50 uM Q10,−1.1
same,"Spot 1057, Arsenite translocating ATPase; Spermine synthetase: modulation vs control media",50 uM Q10,−1.1
same,"Spot 452, acid phosphatase 1: modulation vs control media",100 uM Q10,−1.5
same,"Spot 477, diazepam binding inhibitor: modulation vs control media",100 uM Q10,−1.2
same,"Spot 530, ribosomal protein SA: modulation vs control media",100 uM Q10,−1.4
same,"Spot 652, proteasome beta 3: modulation vs control media",100 uM Q10,−1.3
same,"Spot 720, dCTP pyrophosphatase 1: modulation vs control media",100 uM Q10,−1.2
same,"Spot 773, proteasome beta 4: modulation vs control media",100 uM Q10,−1.2
same,"Spot 1057, Arsenite translocating ATPase; Spermine synthetase: modulation vs control media",100 uM Q10,−1.2
same,"Spot 16, alpha 2-HS glycoprotein (Bos Taurus, cow): modulation vs control media","24 hours, 50 uM Q10",1.4
same,"Spot 130, ribosomal proten P2; histone H2A: modulation vs control media","24 hours, 50 uM Q10",−1.3
same,"Spot 180, beta actin: modulation vs control media","24 hours, 50 uM Q10",1.3
same,"Spot 234, hnRNP C1/C2: modulation vs control media","24 hours, 50 uM Q10",−1.2
same,"Spot 244, heat shock protein 70 kD: modulation vs control media","24 hours, 50 uM Q10",1.1
same,"Spot 275, microtubule associated protein: modulation vs control media","24 hours, 50 uM Q10",1.1
same,"Spot 311, beta tubulin: modulation vs control media","24 hours, 50 uM Q10",1.7
same,"Spot 314, proteasome alpha 3: modulation vs control media","24 hours, 50 uM Q10",1.1
same,"Spot 363, ATP dependent helicase II: modulation vs control media","24 hours, 50 uM Q10",1.2
same,"Spot 369, eukaryotic translation elongation factor 1 delta: modulation vs control media","24 hours, 50 uM Q10",1.1
